Test results taken from patent publication US5721265A, “Fluorinated 2-nitroimidazole analogs for detecting hypoxic tumor cells” (priority 1995, dated 1998).
≈ marks a conversion by molar mass, not a printed value. Where “and” joins values, the source holds several entries; their conditions need not be identical. Equal values may be shown once. Entries after “also recorded” stand apart in the source; their conditions may differ. Read-outs that look alike come from different tables or passages of the source.

How the values were obtained:
[1] = urinary excretion of SR 4554 in non-tumor-bearing female Balb/c mice; type: in vivo, mouse; conditions: urine
[2] = pharmacokinetics of SR 4554 in EMT-6 tumor-bearing mice (HPLC); type: in vivo, mouse
Procedure: Silver nitrate solution (25 μl; 30% w/v) was added to 250 μl of tissue samples and standards and to 20 μl of internal standard solution (12.5 μg/ml in 0.1M Tris buffer, pH 7.4). Samples were then vortexed and centrifuged (2000×g) for 5 min. The extracted samples 50 μl) were then injected into the HPLC.
(§1) The chromatographic system consisted of a WISP Model 712 autosampler (Waters Chromatography Ltd.), Model 660 gradient controller with a quaternary HPLC pump, a Model 991 photodiode array detector and a NEC Powermate SX/16 personal computer running Waters 991 photodiode array software. A reversed phase chromatographic separation was performed on a 10 μm μ Bondapak C18 (3.9×300 mm) analytical column (Millipore) at ambient temperature. Pellicular ODS (Whatman) packed in a 2×6.5 mm stainless steel column (Upchurch Scientific, Inc.) was used as a pre-column. The mobile phase was methanol/H2 O) (15:85). All solvents were filtered through a 0.45 μm Teflon PTFE/polypropylene filter membrane, de-gassed with helium and delivered isocratically at a flow rate of 2 ml/min. The column effluent was monitored by UV-photodiode array detection at 324 nm (UV range=200 to 500 nm). The peak area ratio of analyte to internal standard was used for conversion of the detector response to concentration estimates via the construction of a calibration curve.
EMT-6 tumor-bearing mice were used in this study. Mice were given a single intraperitoneal or intravenous injection (180 mg/kg body weight) or a single oral dose (p.o. 90 mg/kg) by lavage of SR 4554. Three mice were sacrificed per time point and blood obtained by cardiac puncture. The blood obtained was centrifuged to give plasma. Tumors, livers and brain were also obtained at various time points. Samples were extracted with silver nitrate and analyzed by high performance liquid chromatography (HPLC) using the procedures described in Example 4.

EMT-6 tumors = experiment: retention in EMT-6 tumor-bearing Balb/c mice by 19F magnetic resonance spectroscopy; type: in vivo, mouse
Procedure: (§2) SR 4554 was administered as a single intraperitoneal injection of 180 mg/kg to RIF-1 tumor-bearing female C3 H/He mice and EMT-6 tumor-bearing female Balb/c mice. In some experiments, hydralazine ([…] i.v.) was administered 1 h prior to the administration of SR 4554. Magnetic resonance spectroscopy (MRS) was conducted on a 4.7 Tesla (SISCO) nuclear magnetic resonance (NMR) spectrometer using a double-tuned (^19 F/^2 H) circuit at 45 min and 6 hr post injection of SR 4554. Drug concentrations were obtained using a modification of the method of Thulborn et al. (1983) J. Magn. Reson. 55:357-371. Specifically, the ^19 F signal intensity was related to the natural abundance ^2 H signal from tissue water. Calibrations involved the use of a reference bulb containing 5-fluorotryptophan (5-FTP) and acetic acid-d (AcOH-d). Tumors were excised immediately after MRS examination and original drug levels determined by high performance liquid chromatography (HPLC), as described in Example 6.
RIF-1 and EMT-6 tumors have a low and a high radiobiological hypoxic fraction, respectively. Moulder et al. (1984), supra.

SCCVII tumor = experiment: SR 4554 retention and oxygen electrode measurement in SCCVII tumor; type: in vivo
Procedure: (§3) Tumor oxygenation measurements were performed 3 hours after SR 4554 administration using a polarographic needle oxygen electrode.

[3] = tested on: cytochrome P450 reductase; experiment: reduction by purified rat cytochrome P450 reductase under hypoxia; type: in vitro ADME; conditions: 100% nitrogen
Text: (§4) SR 4554 was reduced by mouse liver microsomes as well as purified rat and human cytochrome P450 reductase under hypoxia (100% nitrogen).

[4] = toxicity of SR 4554 in female Balb/c mice; type: in vivo, mouse
Procedure: Toxicity studies of SR 4554 were done in female Balb/c mice. Mice were injected with SR 4554 i.v with 191 mg/kg ([…]) body weight or i.p. with 383 mg/kg ([…]) body weight. Control mice were injected with an equivalent volume of solvent (saline).

[5] = reductive metabolism of SR 4554 by mouse liver microsomes under hypoxia (HPLC); type: in vitro ADME
Procedure: as §1, §4
The characteristics of reductive metabolism of SR 4554 by mouse liver microsomes (0.5 mg/ml protein) are depicted in FIG. 1. Samples were removed at various time points, extracted with silver nitrate and analyzed by high performance liquid chromatography (HPLC) as described above. […] The cytochrome P450 inhibitor--carbonmonoxide--inhibited the hypoxic metabolism of SR 4554 by 15%.

C3H mouse mammary tumor = experiment: influence of carbogen breathing on SR 4554 retention within the C3H mouse mammary tumor; type: in vivo
Text: Table 4 presents the influence of high levels of oxygen (carbogen breathing) on SR 4554 retention within the C3H mouse mammary tumor.

[6] = solubility in 0.9% saline solution
[7] = tested on: murine and human tumor xenografts; experiment: retention of 19F signal in murine and human tumor xenografts by MRS; type: in vivo, mouse; human
Procedure: In addition to the above experiment, more extensive in vivo experiments have been performed. In order to assess the oxygenation status of various murine and human tumor xenografts, the retention of ^19 F signal as measured by MRS was evaluated following SR 4554 administration. The data shown in FIG. 8 represent the mean ±SD of the ratios of ^19 F retention (μmol/g) at 6 hrs relative to 45 mins. RIF1 (fibrosarcoma), EMT6 ([…]) and KHT (adenocarcinoma) are murine tumors whereas HT29 (colon carcinoma), BB (colon carcinoma), WIL (non-small cell lung carcinoma) and HN5 (squamous cell carcinoma of the head and neck) are human tumor xenografts. Importantly, the data illustrates the varying degree of retention of SR 4554 by the different tumors.

[8] = tested on: cytochrome P450 reductase; experiment: reduction by purified human cytochrome P450 reductase under hypoxia; type: in vitro ADME; conditions: 100% nitrogen
Text: as §4

RIF-1 tumors = experiment: retention in RIF-1 tumor-bearing C3H/He mice by 19F magnetic resonance spectroscopy (and HPLC); type: in vivo, mouse
Procedure: as §2
It is assumed that the retention of high concentrations of ^19 F at 6 hr, despite the much lower (20 fold) concentration of original drug detected by HPLC at […], represent one or more nitro-reduced metabolites.
The retention of drug signal in RIF-1 tumors is plotted as a function of tumor weight in FIG. 7. Tumor ^19 F signal levels at 6 hrs and 45 min were calculated in μmol/g tumor. The retention of ^19 F at 6 hrs relative to 45 min in the same tumors was compared to corresponding tumor weights in grams. In this tumor model (a low hypoxic fraction tumor) the relative retention (6 hrs/45 min) correlated with tumor weight (corr. coeff.=0.83).

log P (lipophilicity) = type: physicochemical
C3H-mammary tumor = experiment: SR 4554 retention and oxygen electrode measurement in C3H-mammary tumor; type: in vivo, mouse
Procedure: as §3

tumors = conditions: cited from earlier work
[9] = in vivo; cited from earlier work
[10] = cited from earlier work
[11] = tested on: mouse tumors (EMT-6, KHT, RIF-1); conditions: cited from earlier work; for 19F signal intensity by tumor type: EMT-6, KHT vs RIF-1; for retention in mouse tumors (19F MRS): in vivo
[12] = literature compounds; cited from earlier work
[13] = per amount injected 3.34-3.55 mg

Structure (SMILES): O=C(Cn1ccnc1[N+](=O)[O-])NCC(O)C(F)(F)F (racemic) [SR 4554]
- dose excreted ([1]; mouse, read-out: detected as unchanged parent compound in urine): ≤ 66%
- Amount of Drug Excreted [1, 13]: 2.62 mg and 2.39 mg and 1.83 mg
- Fraction of Dose Excreted [1, 13]: 73.80% and 71.56% and 52.59%
- brain/plasma ratio over time ([2]; i.p.): generally remained low throughout the observation period
- liver/plasma ratio over time ([2]; i.p.): decreased very rapidly
- time of peak tumor/plasma ratio ([2]; i.p.): about 90 min
- liver/plasma and brain/plasma ratios at 240 min ([2]; i.p., 240 min): about the same
- bioavailability ratio relative to i.v., i.v. ([2]; i.v. 180 mg/kg): 100%
- detectable in plasma until ([2]; limit of detection=25 ng/ml, postinjection): ≥ 6 h
- brain levels and brain/plasma ratio ([2]; mice): generally low
- accumulation in the brain ([2]; mouse, in vivo): does not accumulate to any appreciable degree in the brain
- bioavailability ([2]; mouse, in vivo, ip, i.p. 180 mg/kg, read-out: bioavailability ratio relative to i.v., i.p.): 100%
- bioavailability ([2]; mouse, in vivo, po, p.o. 90 mg/kg, read-out: bioavailability ratio relative to i.v., p.o.): 95.5%
- Cmax ([2]; mouse, plasma, read-out: Cmax, plasma): 145 µg/mL
- half-life ([2]; mouse, plasma, read-out: half life, t1/2, plasma): 50.8 ± 1.6 min
- Tmax ([2]; mouse, plasma, read-out: tmax, plasma (converted)): 30 min
- concentration at 6 h ([2]; mouse, tissue, limit of detection, 6 hours, read-out: tissue levels of drug at 6 hours): < 100 ng/g
- Cmax ([2]; mouse, tumor, read-out: Cmax, tumor): 52000 ng/g
- half-life ([2]; mouse, tumor, read-out: half life, t1/2, tumor): 51.5 ± 4.4 min
- Tmax ([2]; mouse, tumor, read-out: tmax, tumor (converted)): 45 min
- Retention (mean ± S.D.) (EMT-6 tumors; EMT-6, 180 mg/kg i.p., n = 12): 1.04 ± 0.66
- retention in EMT-6 compared with RIF-1 tumors (EMT-6 tumors; MRS): greater in EMT-6 tumors than in RIF-1 tumors
- SR 4554 Retention (mean ± SD) (SCCVII tumor): 0.57 +/- 0.14
- reduced under hypoxia [3]: reduced
- behavioral changes or deaths ([4]; i.v. 191 mg/kg or i.p. 383 mg/kg): no behavioral changes or deaths were observed
- bodyweight changes between treated and control mice ([4]; mouse, in vivo): No differences were observed
- inhibition of reduction by cytochrome P450 reductase inhibitor ([5]; TlCl3.4H2O, 0.2 mg/ml): completely inhibited
- inhibition of reduction by air ([5]; in air): completely inhibited
- Vmax of microsomal metabolism ([5]; mouse liver microsomes): 16.84 nmol/min/mg
- other nitro-containing species upon metabolism ([5]; mouse liver microsomes 0.5 mg/ml protein): No other nitro-containing species were observed
- reduced under hypoxia ([5]; mouse liver microsomes, 100% nitrogen): reduced; also recorded: metabolized under hypoxic conditions
- Km ([5]; mouse liver microsomes, read-out: Km of microsomal metabolism): 0.65 mM
- inhibition of reduction in the absence of cofactor (NADPH) ([5]; without NADPH): completely inhibited
- Retention, air breathing (C3H mouse mammary tumor; Air (20% O2)): 0.62 +/- 0.17
- Retention, carbogen breathing (C3H mouse mammary tumor; Carbogen (95% O2)): 0.11 +/- 0.05
- reduction in retention, carbogen vs air (C3H mouse mammary tumor; carbogen vs air): significant (P<0.01) reduction
- solubility [6]: 23 mM (≈ 6.49 mg/mL)
- retention in human tumor xenografts vs murine tumors (6 hrs relative to 45 mins) ([7]; HT29, BB, WIL, HN5 vs RIF1, EMT6, KHT): Apart from the WIL tumor, the retention of the drug in human tumor xenografts were lower than for the murine tumors
- trend of retention with hypoxic fraction ([7]; murine and human tumors): tumors which are known to have a greater hypoxic fraction retained more SR 4554
- reduced under hypoxia [8]: reduced
- Retention (mean ± S.D.), + hydralazine (RIF-1 tumors; RIF-1 + hydralazine 1 h prior, n = 6): 1.27 ± 0.50
- Retention (mean ± S.D.) (RIF-1 tumors; RIF-1, 180 mg/kg i.p., n = 13, tumor weight 0.5 to 2.7 g): 0.53 ± 0.27
- clearance from the brain and retention in tumors (RIF-1 tumors; RIF-1 mice): rapidly cleared from the brain but selectively retained in tumors
- tumor drug level, 7 hrs (HPLC) (RIF-1 tumors; RIF-1 tumor, original drug, 7 hrs, HPLC): 0.009 μmol/g tissue and 0.008 μmol/g tissue and 0.007 μmol/g tissue
- concentration of original drug (HPLC, 7 hrs) lower than 19F (MRS, 6 hr) (RIF-1 tumors; RIF-1 tumors): 20 fold
- increase in retention on hydralazine pre-treatment (RIF-1 tumors; hydralazine 1 h prior): two-fold increase
- logP (log P (lipophilicity)): -0.2
- SR 4554 Retention (mean ± SD) (C3H-mammary tumor): 0.79 +/- 0.36

Structure (SMILES): O=[N+]([O-])c1nccn1CC(O)COC(C(F)(F)F)C(F)(F)F (stereo not shown) [CCI-103F, hexafluoromisonidazole]
- staining for bound drug in tumors (tumors; immunohistochemistry): some staining for bound drug at the periphery of necrotic zones
- 19F tumor signal detectable after twenty-four hours (tumors; intraperitoneal, 24 hours): 4 of 10
- neurotoxic side effects [9]: neurotoxic side effects
- octanol/water partition coefficient [10]: 20
- 19F signal intensity by tumor type [11]: higher in EMT-6 and KHT than RIF-1 tumors
- retention in mouse tumors (19F MRS) [11]: selectively retained in mouse tumors

Structure (SMILES): O=C(Cn1ccnc1[N+](=O)[O-])NCCO [Etanidazole]
- log P [12]: -1.28
- neurotoxicity relative to Misonidazole [9]: less neurotoxic than Misonidazole
- solubility [6]: 551 mM (≈ 118 mg/mL)

Structure (SMILES): COCC(O)Cn1ccnc1[N+](=O)[O-] (stereo not shown) [Misonidazole]
- log P [12]: -0.32

Structure (SMILES): O=[N+]([O-])c1nccn1CC(O)CF (stereo not shown) [Ro 07-0741]
- neurotoxic side effects [9]: neurotoxic side effects
- octanol/water partition coefficient [10]: 0.41
- 19F signal intensity by tumor type [11]: higher in EMT-6 and KHT than RIF-1 tumors
- retention in mouse tumors (19F MRS) [11]: selectively retained in mouse tumors

Structure (SMILES): O=C(Cn1ccnc1[N+](=O)[O-])N(CCO)CC(O)C(F)(F)F (stereo not shown) [SR 4557, N-(2-hydroxyethyl)-N-(2-hydroxy-3,3,3-trifluoropropyl)-2-(2-nitro 1H-imidazol-1-yl)acetamide]
- solubility [6]: 628 mM (≈ 205 mg/mL)
- logP (log P (lipophilicity)): -0.36
